Laboratory results as given in ChEMBL document CHEMBL1150952, “Isolation, identification, and biological activity of isopersin, a new compound from avocado idioblast oil cells” (1998).

Tests used:
[1] = tested on: Spodoptera exigua; test: Insecticidal activity against early instar Spodoptera exigua assessed as mortality at 500 ug/g after 7 days by artificial diet bioassay relative to control; type: functional
[2] = tested on: Spodoptera exigua; test: Insecticidal activity against early instar Spodoptera exigua assessed as larval weight at 500 ug/g after 7 days by artificial diet bioassay; type: functional

Structure (SMILES) | Activity [1] | Activity [2]
CCCCC/C=C\C/C=C\CCCCCCCC(=O)C[C@@H](O)COC(C)=O | 80% | 
CCCCC/C=C\C/C=C\CCCCCCCC(=O)CC(CO)OC(C)=O (stereo not drawn) [ISOPERSIN] | 12% | 26.45 mg
